{"source": "patent US20160120915A1", "about": "“METHODS FOR MANIPULATING IMMUNE RESPONSES BY ALTERING MICROBIOTA” (NEW YORK UNIVERSITY, priority 2013, published 2016)", "key": {"[1]": {"tested_on": "Candidatus Arthromitus (segmented filamentous bacteria, SFB)", "experiment": "SFB relative abundance by 16S rRNA sequencing in microbiota donors", "assay_type": "in vivo, C57BL6J mice", "details": "STAT donors, all time points", "from_the_text": "As above, mice were weaned onto normal chow at 4 weeks and switched to HFD at 6 weeks of age. Cecal microbiota was collected at 18 weeks of age and transferred to 3 to 4-week old germ-free Swiss-Webster mice, which were then housed in specific pathogen-free (SPF) conditions and fed HFD. Longitudinal fecal samples were collected and microbial communities were profiled by 16S rRNA sequencing using standard universal primers (Caporaso et al., ISMEJ 2012, 8:1621-4) at an average depth of approximately 5,800 sequences per sample.\nTaxonomy was assigned based on the Green Genes May 2013 database, and the percentage of sequences classified as Candidatus Arthromitus, the candidate genus name for segmented filamentous bacteria (SFB), was calculated. […] SFB was present in all 3 control donor mice at levels >1%. SFB was undetectable in STAT donors at all time points, and in the Control donors following the switch to a HFD (8 weeks and beyond). SFB was nearly undetectable in microbiota recipients. Only one STAT-recipient mouse had SFB detected, and it was only one sequence that was classified as SFB out of 7,657 total sequences. SFB was not detected in any of the 7 Control or the other 7 STAT microbiota-recipients. […] Other microbiota taxa are thus important in the transferred phenotype."}, "ileum": {"tested_on": "ileum", "experiment": "EarlySTAT: ileal gene expression by qPCR in 4- and 8-week mice", "assay_type": "in vivo, C57BL/6J mice", "details": "STAT vs control", "from_the_text": "C57BL/6J (Jackson Labs, Bar Harbor, Me.) mice either received no antibiotics (control) or continuous STAT penicillin. Mice were weaned at 4 weeks onto normal chow (13.2% fat, 5053 PicoLab Rodent Diet 20, LabDiet, Brentwood, Mo.), then switched to a high fat diet (45% kcal from fat, D12451, Research Diets, New Brunswick, N.J.) at 6 weeks of life. Mice were sacrificed at 4, 8, and 18 weeks of age. The terminal[1 cm] ileum without Peyer's Patches [TI-] was collected for gene expression analysis by qPCR. The proximal 1 cm of ileum was used for histological analysis of tissue structure, and the remaining ileum was used to determine immunity phenotypes by flow cytometry.\nC57BL6J mice were exposed to sub-therapeutic antibiotic treatment (STAT) with penicillin via their drinking water from birth, or no antibiotics (Control). Mice were fed a normal diet until 6 weeks of age, then they were fed high fat diet. 5 mice from each experimental group were sacrificed at 4 weeks, and 4 mice from each group were sacrificed at 8 weeks. The terminal[1 cm] ileum without Peyer's Patches [TI-] was collected for gene expression analysis by qPCR. The proximal 1 cm of ileum was used for histological analysis of tissue structure, and the remaining ileum was used to determine immunity phenotypes by flow cytometry. Ileal gene expression was also measured by microarray and the nCounter GX Mouse Immunology Kit (Nanostring Technologies, Seattle, Wash., USA).\n(§1) Total RNA was extracted from mouse tissues using the RNeasy Mini Kit (Qiagen), according to the manufacturer's instructions. Total RNA was reverse transcribed to cDNA using the Verso™ cDNA Synthesis Kit (Thermo Scientific). To generate standards for expression analysis of each target gene, the cDNA region of interest was PCR-amplified and the PCR product was cloned into pGEM-T easy (Promega). qPCR was performed with LightCycler 480 SYBR Green I Master mix (Roche) and run in a LightCycler 480 system (Roche). Target mRNA was normalized to GAPDH mRNA as an internal control in each sample.\nIleal expression of T-bet [Th1], GATA3 [Th2], Foxp3 [Treg], and RORγt [Th17] (FIG. 4A), and IFNγ [Th1], IL-4 [Th2], TGFβ1 [Treg], and IL-17 [Th17] (FIG. 4B) (4-week; Control, n=4, STAT, n=5, 8-week; Control, n=3, STAT, n=4) was quantitated by qPCR and normalized by GAPDH expression. […] These studies provide evidence that low dose antibiotic exposure can be used to change immune effector T-cell populations and the effector molecules they produce.\nIleal expression of defensin β1, Reg3γ, and Relmβ (4-week; Control n=4, STAT n=5, 8-week; Control n=3, STAT n=4) was quantitated by qPCR and normalized by GAPDH expression. […] These findings provide examples of how the STAT exposure changed intestinal expression of antimicrobial peptide genes.\nIleal expression of the IgA J-chain, polymeric Ig receptor (pIgR), both related to polymeric IgA function, and TLR2 and TLR4 was quantitated by qPCR and normalized by GAPDH expression in 4- and 8-week STAT [4-week; Control n=3, STAT n=4, 8-week; Control n=3, STAT n=4]."}, "terminal ileum": {"tested_on": "terminal ileum", "experiment": "PAT: ileal expression by qPCR in 6-week mice", "assay_type": "in vivo, C57BL/6 mice", "details": "6-week male mice, 3 pulses, vs control", "description": "as §1\nC57BL/6 mice were fed a standard diet after weaning, and exposed to 3 pulses of therapeutic dose antibiotics (Amoxicillin or Tylosin), or no antibiotics, via their drinking water, all before 6 weeks of age. Mice were sacrificed at 6 weeks of age.\nThe distal ileum (1 cm) without Peyer's Patches was collected from each mouse for RNA extraction and kept in RNAlater (Ambion) overnight at 4° C. Samples were stored at −80° C. until RNA extraction was performed.\nPanel A: Mice were exposed to 3 pulses of antibiotics (Amoxicillin or Tylosin), or no antibiotics, via breast milk or drinking water at the indicated time points. Panel B: Male mice, including 5 Control, 4 Amoxicillin, and 6 Tylosin, were fed a normal diet. They were sacrificed at 6 weeks of age and the terminal[1 cm] ileum without Peyer's Patches [TI-] was collected.\nIleal expression of T-bet and IFN-γ [Th1], GATA3 and IL-4 [Th2], Foxp3, and TGFβ1 [Treg], and RORγt, IL-17A, and IL-17F [Th17] (Control n=5, Amoxicillin n=4, Tylosin n=6) was quantitated with qPCR and normalized by GAPDH expression. Expression of T-bet and IFNγ [Th1] (p<0.05) and IL-17A and IL-17F [Th17] […] Foxp3 and RORγt were lower in Tylosin than control. This example extends the earlier observation that continuous antibiotics affect ileal immune cell populations and effectors by showing that pulses are sufficient to produce similar effects."}, "[2]": {"details": "4- and 8-week, qPCR and microarray"}}, "note": "Counter-ions that a name gives are not always drawn."}
{"smiles": "CC1(C)S[C@@H]2[C@H](NC(=O)COc3ccccc3)C(=O)N2[C@H]1C(=O)[O-].[K+]", "note": "[STAT, penicillin VK]", "values": [{"measurement": "SFB relative abundance", "setting": "[1]", "result": "undetectable"}, {"measurement": "expression of all four transcription factors (T-bet, GATA3, Foxp3, RORγt)", "setting": "ileum; 4- and 8-week mice", "result": "trended downwards"}, {"measurement": "ileal B cell markers (IgA J-chain, pIgR)", "setting": "ileum; [2]", "result": "significantly down-regulated"}, {"measurement": "ileal TLRs (TLR2, TLR4)", "setting": "ileum; [2]", "result": "downward trend"}, {"measurement": "ileal expression of IL-17 [Th17]", "setting": "ileum; at 4- and 8-weeks, p<0.05", "result": "significantly down-regulated"}, {"measurement": "ileal expression of RORγt [Th17]", "setting": "ileum; at 4- and 8-weeks, p<0.05", "result": "significantly down-regulated"}, {"measurement": "ileal expression of T-bet [Th1]", "setting": "ileum; at 4- and 8-weeks, p<0.05", "result": "significantly down-regulated"}, {"measurement": "ileal expression of IFNγ [Th1]", "setting": "ileum; at 4-weeks, p<0.05", "result": "significantly down-regulated"}, {"measurement": "ileal Relmβ expression", "setting": "ileum; at 4 weeks, p<0.05", "result": "significantly lower"}, {"measurement": "ileal expression of GATA3 [Th2]", "setting": "ileum; at 8-weeks, p<0.05", "result": "significantly down-regulated"}, {"measurement": "ileal expression of TGFβ1 [Treg]", "setting": "ileum; at 8-weeks, p<0.05", "result": "significantly down-regulated"}, {"measurement": "ileal expression of all three antimicrobial peptides (defensin β1, Reg3γ, Relmβ)", "setting": "ileum; at 8 weeks, p<0.05", "result": "significantly lower"}]}
{"smiles": "CC[C@H]1OC(=O)C[C@@H](O)[C@H](C)[C@@H](O[C@@H]2O[C@H](C)[C@@H](O[C@H]3C[C@@](C)(O)[C@@H](O)[C@H](C)O3)[C@H](N(C)C)[C@H]2O)[C@@H](CC=O)C[C@@H](C)C(=O)/C=C/C(C)=C/[C@@H]1CO[C@@H]1O[C@H](C)[C@@H](O)[C@@H](OC)[C@H]1OC", "note": "[Tylosin, Tylosin tartrate]", "values": [{"measurement": "ileal expression of Foxp3", "setting": "terminal ileum", "result": "lower"}, {"measurement": "ileal expression of RORγt", "setting": "terminal ileum", "result": "lower"}, {"measurement": "ileal expression of IFNγ [Th1]", "setting": "terminal ileum; p<0.05", "result": "significantly lower"}, {"measurement": "ileal expression of IL-17A [Th17]", "setting": "terminal ileum; p<0.05", "result": "significantly lower"}, {"measurement": "ileal expression of IL-17F [Th17]", "setting": "terminal ileum; p<0.05", "result": "significantly lower"}, {"measurement": "ileal expression of T-bet [Th1]", "setting": "terminal ileum; p<0.05", "result": "significantly lower"}]}
